pIC50: −log10 of the molar value. Where two headings read alike, the source gives them in different places.
Tests used:
human VR1 = target: T1, human VR1 (Homo sapiens, UniProt Q8NER1); experiment: Capsaicin-induced Ca2+ influx in the human VR1-transfected CHO cell line (Assay 1); assay type: cell-based
T1 construct: The cloned hVR1 cDNA was constructed with pcDNA3 vector and transfected into a CHOluc9aeq cell line; expressed in transfected cells
Description: [Measurement of Capsaicin-Induced Ca^2+ Influx in the Human VR1-Transfected CHO Cell Line] (Assay 1)
(1) Establishment of the Human VR1-CHOluc9aeq Cell Line
Human vanilloid receptor (hVR1) cDNA was cloned from libraries of axotomized dorsal root ganglia (WO2000/29577). The cloned hVR1 cDNA was constructed with pcDNA3 vector and transfected into a CHOluc9aeq cell line. The cell line contains aequorin and CRE-luciferase reporter genes as read-out signals. The transfectants were cloned by limiting dilution in selection medium (DMEM/F12. medium (Gibco BRL) supplemented with 10% FCS, 1.4 mM Sodium pyruvate, 20 mM HEPES, 0.15% Sodium bicarbonate, 100 U/ml penicillin, 100 μg/ml strept mycin, 2 mM glutamine, non-essential amino acids and 2 mg/ml G418). Ca^2+ influx was examined in the capsaicin-stimulated clones. A high responder clone was selected and used for further experiments in the project. The human VR1-CHOluc9aeq cells were maintained in the selection medium and passaged every 3-4 days at 1-2.5×10^5 cells/flask ([…]).
(2) Measurement of Ca^2+ Influx Using FDSS-3000
Human VR1-CHOluc9aeq cells were suspended in a culture medium which is the same as the selection medium except for G418 and seeded at a density of 1,000 cells per well into 384-well plates (black walled clear-base/Nalge Nunc International). Following the culture for 48 hrs the medium was changed to 2 μM Fluo-3 AM (Molecular Probes) and 0.02% Puronic F-127 in assay buffer (Hank's balanced salt solution (HBSS), 17 mM HEPES (pH7.4), 1 mM Probenecid, 0.1% BSA) and the cells were incubated for 60 min at 25° C. After washing twice with assay buffer the cells were incubated with a test compound or vehicle for 20 min at 25° C. Mobilization of cytoplasmic Ca^2+ was measured by FDSS-3000 (λex=488 nm, λem=540 nm/Hamamatsu Photonics) for 60 sec after the stimulation with 10 nM capsaicin. Integral R was calculated and compared with controls.
The data corresponds to the compounds as yielded by solid phase synthesis and thus to levels of purity of about 40 to 90%.

T1 sequence (Q8NER1 whole entry): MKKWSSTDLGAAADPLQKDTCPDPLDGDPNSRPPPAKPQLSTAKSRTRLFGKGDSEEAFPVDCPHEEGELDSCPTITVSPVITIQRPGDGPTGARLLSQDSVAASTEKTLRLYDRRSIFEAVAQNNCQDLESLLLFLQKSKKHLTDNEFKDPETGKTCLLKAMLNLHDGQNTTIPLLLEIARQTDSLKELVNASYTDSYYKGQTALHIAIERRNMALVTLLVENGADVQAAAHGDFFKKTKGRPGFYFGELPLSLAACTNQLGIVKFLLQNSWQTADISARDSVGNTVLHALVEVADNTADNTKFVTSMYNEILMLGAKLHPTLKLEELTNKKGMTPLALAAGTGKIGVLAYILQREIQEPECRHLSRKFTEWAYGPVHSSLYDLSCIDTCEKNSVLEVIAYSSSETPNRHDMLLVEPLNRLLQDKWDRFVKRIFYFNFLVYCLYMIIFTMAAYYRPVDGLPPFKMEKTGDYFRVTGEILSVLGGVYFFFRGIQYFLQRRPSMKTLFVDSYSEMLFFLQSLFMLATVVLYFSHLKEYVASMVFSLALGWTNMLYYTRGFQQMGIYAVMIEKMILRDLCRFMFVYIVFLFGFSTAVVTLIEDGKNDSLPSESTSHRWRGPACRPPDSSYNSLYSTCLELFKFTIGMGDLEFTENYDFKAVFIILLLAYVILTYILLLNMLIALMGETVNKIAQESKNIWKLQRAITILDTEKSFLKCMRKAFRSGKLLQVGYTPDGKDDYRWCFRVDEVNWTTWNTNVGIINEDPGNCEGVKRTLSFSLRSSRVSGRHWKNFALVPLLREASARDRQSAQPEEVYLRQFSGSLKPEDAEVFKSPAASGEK

SMILES | pIC50 (human VR1; read-out: hVR1 class) | melting point [°C] | pIC50 (human VR1; read-out: Activity grade)
Cc1cccc(NC(=O)Nc2ccc3c(c2)S(=O)(=O)C=C3)c1 [Example 38] | 6.00 to 6.30 | 219 to 222 | 
COc1ccc(CNC(=O)Nc2cccc3[nH]ccc23)cc1 [Example 102] | 6.00 to 6.30 | 201 to 202 | 
O=C(Nc1ccc(Br)cc1)Nc1cccc2[nH]ccc12 [Example 60] | 6.30 to 7.00 | 238 to 240 | 
O=C(Nc1ccc(Cl)c(C(F)(F)F)c1)Nc1cccc2[nH]c(C(F)(F)F)nc12 [Example 9] | > 7.00 | 165 to 169 | 
CSc1cccc(NC(=O)Nc2ccc3[nH]ccc3c2)c1 [Example 71] | 6.30 to 7.00 | 236 to 239 | 
O=C(NCc1ccc(Br)cc1)Nc1cccc2[nH]ccc12 [Example 89] | > 7.00 | 199 to 202 | 
O=C(Nc1ccc(F)cc1F)Nc1cccc2[nH]ccc12 [Example 64] | 6.00 to 6.30 | 247 to 248 | 
COc1ccc(NC(=O)Nc2ccc3sc(C)nc3c2)cc1 [Example 28] | 6.30 to 7.00 | 215 to 217 | 
Cc1cccc(NC(=O)Nc2cccc3[nH]ccc23)c1 [Example 33] | 6.30 to 7.00 | 237 to 239 | 
O=C(Nc1ccc(Cl)c(C(F)(F)F)c1)Nc1ccc2cc[nH]c2c1 [Example 6] | 6.30 to 7.00 | 245 to 248 | 
Cc1nc2cc(NC(=O)Nc3cccc4ccccc34)ccc2s1 [Example 40] | > 7.00 | > 250 | 
Cc1nc2cc(NC(=O)Nc3ccc(Cl)c(C(F)(F)F)c3)ccc2[nH]1 [Example 48] | 6.00 to 6.30 | 162 to 166 | 
Cc1nc2cc(NC(=O)Nc3ccc(C)c(Cl)c3)ccc2s1 [Example 31] | > 7.00 | 230 to 232 | 
CC(=O)c1cccc(NC(=O)Nc2cccc3[nH]ccc23)c1 [Example 83] | 6.00 to 6.30 | 205 to 207 | 
CSc1cccc(NC(=O)Nc2ccc3[nH]c(C(F)(F)F)nc3c2)c1 [Example 77] | 6.00 to 6.30 | 226 to 228 | 
O=C(NCc1cccc(F)c1)Nc1cccc2[nH]ccc12 [Example 99] | 6.00 to 6.30 | 190 to 192 | 
COc1cccc(NC(=O)Nc2ccc3[nH]ccc3c2)c1 [Example 73] | 6.00 to 6.30 | 227 to 229 | 
Cc1cccc(NC(=O)Nc2ccc3[nH]ccc3c2)c1 [Example 70] | 6.00 to 6.30 | 250 | 
CC(C)c1ccc(NC(=O)Nc2cccc3[nH]ccc23)cc1 [Example 66] | > 7.00 | 222 to 224 | 
Cc1nc2cc(NC(=O)Nc3cccc(-c4ccccc4)c3)ccc2s1 [Example 56] | 6.30 to 7.00 | 216 to 219 | 
Cc1nc2cc(NC(=O)Nc3ccc4ccccc4c3)ccc2s1 [Example 27] | > 7.00 | > 250 | 
O=C(Nc1ccc(Cl)c(Cl)c1)Nc1cccc2[nH]ccc12 [Example 63] | > 7.00 | 244 to 245 | 
O=C(Nc1ccc(Br)cc1)Nc1ccc2[nH]c(C(F)(F)F)nc2c1 [Example 80] | 6.00 to 6.30 | > 250 | 
O=C(Nc1ccc(Cl)c(C(F)(F)F)c1)Nc1ccc2[nH]c(=S)sc2c1 [Example 18] | 6.00 to 6.30 | > 250 | 
O=C(Nc1ccc(Cl)c(C(F)(F)F)c1)Nc1ccc2[nH]cnc2c1 [Example 57] | 6.30 to 7.00 | 218 to 220 | 
Cc1nc2cc(NC(=O)Nc3ccc(Cl)c(C(F)(F)F)c3)ccc2s1 [Example 16] | > 7.00 | 152 to 155 | 
Cc1nc2cc(NC(=O)Nc3ccc(Oc4ccccc4)cc3)ccc2[nH]1 [Example 49] | 6.00 to 6.30 | 243 to 245 | 

SMILES | pIC50 (human VR1; read-out: hVR1 class) | melting point [°C] | pIC50 (human VR1; read-out: Activity grade)
O=C(Nc1cc([N+](=O)[O-])ccc1F)Nc1cccc2[nH]ccc12 [Example 97] | 6.00 to 6.30 | 261 to 263 | 
O=C(Nc1ccc(Cl)cc1)Nc1cccc2[nH]ccc12 [Example 91] | 6.30 to 7.00 | 247 to 248 | 
O=C(Nc1ccccc1Cl)Nc1cccc2[nH]ccc12 [Example 95] | 6.30 to 7.00 | 244 to 246 | 
O=C(Nc1ccc(Cl)c(C(F)(F)F)c1)Nc1ccc2ncsc2c1 [Example 1, N-(1,3-benzothiazol-6-yl)-N′-[4-chloro-3-(trifluoromethyl)phenyl]urea] |  | 225 to 228 | > 7.00
Cc1nc2cc(NC(=O)Nc3ccc(C(C)C)cc3)ccc2s1 [Example 39] | > 7.00 | 208 to 210 | 
O=C(Cc1ccc(Cl)c(C(F)(F)F)c1)Nc1ccc2cn[nH]c2c1 [Example 19] | 6.00 to 6.30 | > 250 | 
Cc1nc2cc(NC(=O)Nc3ccc(C)c(Cl)c3)ccc2[nH]1 [Example 51] | 6.00 to 6.30 | 200 to 204 | 
Cc1nc2c(NC(=O)Nc3ccc(Cl)c(C(F)(F)F)c3)cccc2[nH]1 [Example 53] | > 7.00 | 189 to 191 | 
Cc1ccc(CNC(=O)Nc2cccc3[nH]ccc23)cc1 [Example 100] | 6.30 to 7.00 | 223 | 
Cc1nc2ccc(NC(=O)Nc3ccc(Cl)c(C(F)(F)F)c3)cc2s1 [Example 15] | 6.30 to 7.00 | 234 to 235 | 
Cc1nc2c(NC(=O)Nc3ccc(Oc4ccccc4)cc3)cccc2[nH]1 [Example 54] | > 7.00 | 223 to 225 | 
O=C(Nc1ccccc1-c1ccccc1)Nc1cccc2[nH]ccc12 [Example 86] | 6.00 to 6.30 | 104 to 106 | 
O=C(Nc1cccc(-c2ccccc2)c1)Nc1ccc2[nH]ccc2c1 [Example 46] | 6.30 to 7.00 | 204 to 206 | 
O=C(Nc1cc(Cl)cc(Cl)c1)Nc1cccc2[nH]ccc12 [Example 93] | 6.30 to 7.00 | 262 to 263 | 
COc1cccc(NC(=O)Nc2cccc3[nH]ccc23)c1 [Example 36] | 6.30 to 7.00 | 219 to 221 | 
CSc1cccc(NC(=O)Nc2cccc3[nH]ccc23)c1 [Example 34] | 6.30 to 7.00 | 198 to 201 | 
CC(C)c1ccc(NC(=O)Nc2ccc3[nH]cnc3c2)cc1 [Example 59] | 6.00 to 6.30 | 226 to 229 | 
O=C(Nc1cccc(-c2ccccc2)c1)Nc1cccc2[nH]ccc12 [Example 2, N-(1,1′-biphenyl-3-yl)-N′-(1H-indol-4-yl)urea] |  | 213 to 215 | > 7.00
O=C(Nc1ccc(Cl)c(C(F)(F)F)c1)Nc1ccc2[nH]ncc2c1 [Example 3] | > 7.00 | > 250 | 
Cc1nc2cc(NC(=O)Nc3cccc(C(F)(F)F)c3)ccc2s1 [Example 23] | > 7.00 | 229 to 231 | 
O=C(Nc1ccc(Cl)c(Cl)c1)Nc1ccc2[nH]c(C(F)(F)F)nc2c1 [Example 81] | 6.00 to 6.30 | 240 to 242 | 
Cc1ccc(NC(=O)Nc2cccc3[nH]ccc23)cc1Cl [Example 65] | > 7.00 | 246 to 247 | 
O=C(Nc1ccc(Cl)c([N+](=O)[O-])c1)Nc1cccc2[nH]ccc12 [Example 96] | 6.30 to 7.00 | 233 to 235 | 
O=C(NCc1ccc(Br)cc1)Nc1cccc2cc[nH]c12 [Example 11] | > 7.00 | 205 to 208 | 
COc1cccc(NC(=O)Nc2ccc3c(c2)S(=O)(=O)C=C3)c1 [Example 45] | 6.00 to 6.30 | 206 to 208 | 
O=C(Nc1ccc(Oc2ccccc2)cc1)Nc1ccc2[nH]c(C(F)(F)F)nc2c1 [Example 75] | 6.00 to 6.30 | 239 to 241 | 

— patent US20050119304A1, “Urea derivatives” (priority 2001, published 2005)
